In US5486595A, “Tumor necrosis factor inhibitors” (Centecor, Inc., priority 1994, dated 1996):
Where a SMILES comes first, the peptide text is derived from it.

Each compound was assayed against T1, human TNFα (Homo sapiens, UniProt P01375) (assay: p55 Receptor/IgG Fusion Protein Binding Assay (inhibition of TNFα capture by p55-Ig coated plate)). Settings: peptide 1 mM; TNFα 25 ng/ml; read-out: inhibition of binding of TNFα to p55TNFr-IgG chimeric construct.
T1 construct: purchased Biosource, Camarillo, Calif
Method: This assay was designed to identify peptides which bind to human TNFα and thereby prevent the capture of the TNFα by a microtiter plate coated with p55-Ig fusion protein. A constant concentration of human TNFα is preincubated with the test peptide and then incubated on the p55-Ig coated microtiter wells. Bound TNFα is detected using a specific antisera and an alkaline phosphatase-conjugated probe.
A 96-well, U-bottom polyvinylchloride microtiter plate was coated with 50 μl/well of p55-Ig fusion protein at 5 μg/ml in 0.01M sodium phosphate, 0.15M sodium chloride (PBS) by incubation overnight at 4° C. or 2 hours at 37° C. The fusion protein, which consists of a p55 TNF receptor protein portion and an IgG portion, can be produced as disclosed in U.S. application Ser. No. 08/010,406 filed Jan. 29, 1993 which is incorporated herein by reference. The plate was washed three times with 0.05% Tween-20 in PBS, then blocked, by adding 150 μl/well of assay buffer (10 mM N-2-hydroxyethylpiperazine-N'-[…] (HEPES) pH 7.2, containing 0.1% porcine gelatin, 0.1% Tween-80, and 0.01% sodium azide) and continuing incubation for 1 hour at 37° C. or at 4° C. for 1-7 days.
Lyophilized peptides to be tested were weighed in tared 12×75 mm polystyrene tubes and reconstituted to a concentration of 1.2 mM with assay buffer. Each suspension was sonicated in a water bath for 1-5 minutes and vortexed 15-30 seconds to disperse large particles. Serial dilutions of each peptide suspension were prepared using assay buffer in a 96-well polystyrene microtiter plate. Additional wells received Fab fragment of the mouse/human monoclonal anti-human TNFα antibody cA2 (positive control) or assay buffer (negative control). […] The polystyrene dilution plate was then sealed and incubated 1 hour at room temperature on an orbital mixer set at moderate speed.
Following the sample preincubation, blocker was discarded from the p55-Ig coated plate and blotted dry. Aliquots (50 μl) of each peptide or control were transferred into duplicate wells on the p55-Ig coated plate which was then sealed and incubated i hour at 37° C. Duplicate wells containing only assay buffer were included as a plate blank. After incubation the p55-Ig plate was washed three times with 0.05% Tween-20 in PBS.
To detect TNFα captured by the p55-Ig plate, all wells were incubated in succession with polyclonal rabbit anti-human TNFα (Genzyme, Boston, Mass.; 1:500 in assay buffer, 50 μl/well), biotinylated goat anti-rabbit Ig (H&L) (Vector Laboratories, Burlingame, Calif.; 1 μg/ml in assay buffer, 50 μl/well) and streptavidin-alkaline phosphatase conjugate (Pierce, Rockford, Ill.; 1 μg/ml in assay buffer, 50 μl/well). All incubations were for 1 hour at 37° C. and after each incubation the plate was washed three times with 0.05% Tween-20 in PBS. Fifty microliters of alkaline phosphatase substrate solution (alkaline buffer (Sigma, St. Louis, Mo.) diluted 1:500 in deionized water plus one 5 mg tablet of p-nitrophenyl phosphate (Sigma, St. Louis, Mo.) per 5 ml of diluted buffer) was added to all wells and incubation continued for 20 minutes at room temperature. Color development was stopped by adding to all wells 50 μl of 3N sodium hydroxide. The optical density (OD) at 405 nm was measured on a microtiter plate reader (Molecular Devices Vmax plate reader), with the plate blank wells subtracted as background. The activity of each peptide was then expressed as the percent inhibition of TNFα capture by the p55-Ig plate, relative to the amount of TNFα captured in wells containing only assay buffer (negative control), as follows: % inhibition=100-((mean OD peptide/mean OD negative control)×100).
The inhibition of binding of TNFα to p55TNFr-IgG chimeric construct was performed as described above using several embodiments of the invention. The peptides were tested at a concentration of 1 mM.

T1 sequence (P01375 77-233 limits assumed): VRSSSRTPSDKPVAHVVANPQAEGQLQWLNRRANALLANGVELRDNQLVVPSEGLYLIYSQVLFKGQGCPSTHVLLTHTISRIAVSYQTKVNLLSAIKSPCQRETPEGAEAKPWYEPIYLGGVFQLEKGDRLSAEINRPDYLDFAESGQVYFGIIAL

Row | Structure (SMILES) | inhibition at 1000 µM
1 | CC[C@H](C)[C@H](NC(=O)[C@H](CCC(N)=O)NC(=O)[C@@H]1CCCN1)C(=O)N[C@@H](CCC(=O)O)C(=O)N[C@@H](CC(N)=O)C(=O)N[C@H](C(=O)N[C@@H](CCCCN)C(=O)NCC(=O)N[C@H](C(=O)N[C@@H](CCC(=O)O)C(=O)N[C@@H](CC(N)=O)C(=O)N[C@@H](CO)C(=O)NCC(=O)N[C@H](C(=O)N[C@H](C(N)=O)[C@@H](C)O)[C@@H](C)O)[C@@H](C)O)C(C)C [SEQ ID NO:23, Prolyl-glutaminyl-isoleucyl-glutamyl-asparaginyl-valyl-lysyl-glycyl-threonyl-glutamyl-asparaginyl-seryl-glycyl-threonyl-threonine Amide] (H-PQIENVKGTENSGTT-NH2) | 52%
2 | CC(C)C[C@H](NC(=O)[C@H](CCCNC(=N)N)NC(=O)[C@H](C)NC(=O)[C@@H](NC(=O)[C@H](CO)NC(=O)CNC(=O)[C@@H]1CCCN1C(=O)[C@H](CCC(=O)O)NC(=O)[C@@H]1CCCN1C(=O)[C@H](C)NC(=O)[C@H](Cc1ccc(O)cc1)NC(=O)[C@@H]1CCCN1C(=O)[C@@H](NC(=O)[C@@H](N)Cc1ccccc1)[C@@H](C)O)[C@@H](C)O)C(=O)N[C@@H](CCCNC(=N)N)C(N)=O [SEQ ID NO:25] (H-FTPYAPEPGSTARLR-NH2) | 69%
3 | CC(C)[C@H](NC(=O)[C@H](CCCCN)NC(=O)[C@H](C)NC(=O)[C@@H](N)Cc1c[nH]cn1)C(=O)N[C@@H](Cc1ccccc1)C(=O)N[C@@H](C)C(=O)N[C@H](C(=O)N[C@@H](CCCCN)C(=O)N[C@H](C(=O)N[C@@H](CO)C(=O)N[C@@H](CC(=O)O)C(=O)N[C@H](C(=O)N[C@H](C(=O)N[C@@H](C)C(=O)N[C@@H](CC(=O)O)C(N)=O)C(C)C)[C@@H](C)O)[C@@H](C)O)[C@@H](C)O [SEQ ID NO:31] (H-HAKVFATKTSDTVAD-NH2) | 68%
4 | CC(C)[C@H](NC(=O)[C@@H](NC(=O)[C@H](CC(=O)O)NC(=O)[C@H](CO)NC(=O)[C@@H](NC(=O)[C@H](CCCCN)NC(=O)[C@@H](N)[C@@H](C)O)[C@@H](C)O)[C@@H](C)O)C(=O)N[C@@H](C)C(=O)N[C@@H](CC(=O)O)C(=O)N[C@@H](CO)C(=O)N[C@@H](C)C(=O)N[C@@H](CCC(=O)O)C(=O)N[C@@H](CC(=O)O)C(=O)N[C@@H](CO)C(=O)N[C@H](C(N)=O)[C@@H](C)O [SEQ ID NO:33] (H-TKTSDTVADSAEDST-NH2) | 67%
5 | CSCC[C@H](NC(=O)[C@H](CO)NC(=O)[C@H](CCCNC(=N)N)NC(=O)[C@@H](NC(=O)[C@@H]1CCCN1C(=O)[C@H](CO)NC(=O)[C@@H](NC(=O)[C@H](CO)NC(=O)[C@@H](NC(=O)[C@H](C)N)[C@@H](C)O)[C@@H](C)O)[C@@H](C)O)C(=O)N[C@@H](C)C(=O)N1CCC[C@H]1C(=O)NCC(=O)N[C@@H](C)C(=O)N[C@H](C(N)=O)C(C)C [SEQ ID NO:54] (H-ATSTSPTRSMAPGAV-NH2) | 52%
6 | CC(C)C[C@H](NC(=O)[C@H](Cc1c[nH]cn1)NC(=O)[C@@H](NC(=O)[C@H](C)NC(=O)CN)C(C)C)C(=O)N1CCC[C@H]1C(=O)N[C@@H](CCC(N)=O)C(=O)N1CCC[C@H]1C(=O)N[C@H](C(=O)N[C@@H](CO)C(=O)N[C@H](C(=O)N[C@@H](CCCNC(=N)N)C(=O)N[C@@H](CO)C(=O)N[C@@H](CCC(N)=O)C(=O)N[C@@H](Cc1c[nH]cn1)C(N)=O)[C@@H](C)O)C(C)C [SEQ ID NO:55] (H-GAVHLPQPVSTRSQH-NH2) | 60%
7 | CC(C)C[C@H](NC(=O)[C@@H](N)Cc1c[nH]cn1)C(=O)N1CCC[C@H]1C(=O)N[C@@H](CCC(N)=O)C(=O)N1CCC[C@H]1C(=O)N[C@H](C(=O)N[C@@H](CO)C(=O)N[C@H](C(=O)N[C@@H](CCCNC(=N)N)C(=O)N[C@@H](CO)C(=O)N[C@@H](CCC(N)=O)C(=O)N[C@@H](Cc1c[nH]cn1)C(=O)N[C@H](C(=O)N[C@@H](CCC(N)=O)C(=O)N1CCC[C@H]1C(N)=O)[C@@H](C)O)[C@@H](C)O)C(C)C [SEQ ID NO:56] (H-HLPQPVSTRSQHTQP-NH2) | 67%

Next, values leading:

Row | inhibition at 1000 µM | Structure (SMILES)
8 | 21% | CC(C)C[C@H](NC(=O)[C@H](C)NC(=O)[C@H](CC(C)C)NC(=O)[C@H](CO)NC(=O)[C@H](C)NC(=O)[C@H](CC(N)=O)NC(=O)[C@H](Cc1ccccc1)NC(=O)[C@H](C)NC(=O)[C@H](CCC(N)=O)NC(=O)[C@H](Cc1ccccc1)NC(=O)[C@H](CC(C)C)NC(=O)[C@H](CC(N)=O)NC(=O)[C@H](CCC(=O)O)NC(=O)[C@@H](N)CO)C(=O)N[C@@H](CC(N)=O)C(N)=O [SEQ ID NO:24] (H-SENLFQAFNASLALN-NH2)
9 | 71% | CC(C)C[C@H](NC(=O)[C@H](CCCNC(=N)N)NC(=O)[C@H](C)NC(=O)[C@@H](NC(=O)[C@H](CO)NC(=O)CNC(=O)[C@@H]1CCCN1C(=O)[C@H](CCC(=O)O)NC(=O)[C@@H]1CCCN1C(=O)[C@H](C)NC(=O)[C@@H](N)Cc1ccc(O)cc1)[C@@H](C)O)C(=O)N[C@@H](CCCNC(=N)N)C(=O)N[C@@H](CCC(=O)O)C(=O)N[C@@H](Cc1ccc(O)cc1)C(=O)N[C@@H](Cc1ccc(O)cc1)C(N)=O [SEQ ID NO:26] (H-YAPEPGSTARLREYY-NH2)
10 | 78% | CC(C)C[C@H](NC(=O)[C@H](CCCNC(=N)N)NC(=O)[C@H](C)NC(=O)[C@@H](NC(=O)[C@H](CO)NC(=O)CNC(=O)[C@@H]1CCCN1C(=O)[C@@H](N)CCC(=O)O)[C@@H](C)O)C(=O)N[C@@H](CCCNC(=N)N)C(=O)N[C@@H](CCC(=O)O)C(=O)N[C@@H](Cc1ccc(O)cc1)C(=O)N[C@@H](Cc1ccc(O)cc1)C(=O)N[C@@H](CC(=O)O)C(=O)N[C@@H](CCC(N)=O)C(=O)N[C@H](C(N)=O)[C@@H](C)O [SEQ ID NO:27] (H-EPGSTARLREYYDQT-NH2)
11 | 72% | CSCC[C@H](NC(=O)[C@H](CCC(N)=O)NC(=O)[C@H](C)NC(=O)[C@@H](NC(=O)[C@H](CCC(N)=O)NC(=O)[C@H](CC(=O)O)NC(=O)[C@H](Cc1ccc(O)cc1)NC(=O)[C@H](Cc1ccc(O)cc1)NC(=O)[C@H](CCC(=O)O)NC(=O)[C@H](CCCNC(=N)N)NC(=O)[C@H](CC(C)C)NC(=O)[C@H](CCCNC(=N)N)NC(=O)[C@H](C)NC(=O)[C@@H](NC(=O)[C@@H](N)CO)[C@@H](C)O)[C@@H](C)O)C(N)=O [SEQ ID NO:28] (H-STARLREYYDQTAQM-NH2)
12 | 53% | CSCC[C@H](NC(=O)[C@H](CCC(N)=O)NC(=O)[C@H](C)NC(=O)[C@@H](NC(=O)[C@H](CCC(N)=O)NC(=O)[C@H](CC(=O)O)NC(=O)[C@H](Cc1ccc(O)cc1)NC(=O)[C@H](Cc1ccc(O)cc1)NC(=O)[C@H](CCC(=O)O)NC(=O)[C@H](CCCNC(=N)N)NC(=O)[C@H](CC(C)C)NC(=O)[C@@H](N)CCCNC(=N)N)[C@@H](C)O)C(=O)N[C@@H](C)C(=O)N[C@@H](C)C(=O)N[C@@H](CO)C(N)=O [SEQ ID NO:29] (H-RLREYYDQTAQMAAS-NH2)
13 | 59% | CSCC[C@H](NC(=O)[C@H](CCC(N)=O)NC(=O)[C@H](C)NC(=O)[C@@H](NC(=O)[C@H](CCC(N)=O)NC(=O)[C@H](CC(=O)O)NC(=O)[C@H](Cc1ccc(O)cc1)NC(=O)[C@H](Cc1ccc(O)cc1)NC(=O)[C@@H](N)CCC(=O)O)[C@@H](C)O)C(=O)N[C@@H](C)C(=O)N[C@@H](C)C(=O)N[C@@H](CO)C(=O)N[C@@H](CCCCN)C(=O)N[C@@H](C)C(=O)N[C@@H](CO)C(N)=O [SEQ ID NO:30] (H-EYYDQTAQMAASKAS-NH2)
14 | 64% | CC(C)[C@H](N)C(=O)N[C@@H](Cc1ccccc1)C(=O)N[C@@H](C)C(=O)N[C@H](C(=O)N[C@@H](CCCCN)C(=O)N[C@H](C(=O)N[C@@H](CO)C(=O)N[C@@H](CC(=O)O)C(=O)N[C@H](C(=O)N[C@H](C(=O)N[C@@H](C)C(=O)N[C@@H](CC(=O)O)C(=O)N[C@@H](CO)C(=O)N[C@@H](C)C(=O)N[C@@H](CCC(=O)O)C(N)=O)C(C)C)[C@@H](C)O)[C@@H](C)O)[C@@H](C)O [SEQ ID NO:32] (H-VFATKTSDTVADSAE-NH2)
